{"source": "patent EP0398427A1", "about": "“Antirhinoviral pyridazinamines” (priority 1989, dated 1990)", "key": {"[1]": {"tested_on": "Human Rhinovirus serotypes HRV- 2,-29,-39,-85,-9,-15,-51,-59,-63,-89 and -41", "test": "Picornavirus Minimal Inhibitory Concentration test (cytopathic effect reduction assay), first panel of rhinoviruses", "format": "cell-based", "conditions": "Human rhinovirus sp., HeLa, read-out: Med₁", "description": "(§1) The Minimal Inhibitory Concentration of the compounds of the present invention against the Human Rhinovirus strains (HRV) -2,-9,-14,-15,-29,-39,-41,-42,-45,-51 -59,-63,-70,-72-,-85,-86 and -89 was determined by a standard cytophatic effect reduction assay as follows. To each of the ninty six (96) wells of a microtiter 96 well tissue culture plate there was added 60 µl of a Ohio Hela cell maintenance medium [Eagle's Basal medium supplemented with 5% Foetal Calf Serum (FCS)]. To two wells there was added 60 µl of an appropriate starting dilution of a compound of formula (I) and two-fold dilutions were made to cover a wide range of compound concentrations. Subsequently there were added 120 µl of an infectious solution of virus in Eagle's Basal Medium with 2% Hepes buffer, 2% FCS and 30 mM MgCl₂ to all wells except cell and compound controls. Said infectious virus solution having a TCID₅₀-value (Tissue Culture Infectious Dose) of about 100.\n(§2) The TCID₅₀-value is the dose of viruses which initiates a cytopathic effect in 50% of the inoculated cells. 150 µl of the thus obtained virus-compound mixtures were then transferred to microtitre plates with subconfluent Ohio Hela Cells, grown in 100 µl of maintenance medium. Appropriate virus controls, cell controls and compound controls were included in each test. Plates were incubated for 3 to 5 days at 33°C in 5% CO₂ atmosphere. […] The IC₅₀-value for each virus-compound series was taken as the concentration in ng/ml that protected 50% of the cells from cytopathic effects with respect to the untreated controls. In the standard test procedure, the compounds were tested against a first panel of rhinoviruses consisting of serotypes HRV- 2,-29,-39,-85,-9,-15,-51,-59,-63,-89 and -41 and the other panel consisting of HRV-42,-45,-14,-70,-72 and -86.\n(§3) The IC₅₀-value for each rhinovirus serotype was determined, and the efficacy of each compound was determined in terms of the Med₁-value and Med₂-value, which is the medium value of the IC₅₀-values of all serotypes from the first and second panel respectively."}, "[2]": {"tested_on": "HRV-42,-45,-14,-70,-72 and -86", "test": "Picornavirus Minimal Inhibitory Concentration test (cytopathic effect reduction assay), second panel of rhinoviruses", "format": "cell-based", "conditions": "Human rhinovirus sp., HRV42, HeLa, read-out: Med₂", "description": "as §1, §2, §3"}}, "data": [{"compound": "CCOC(=O)c1ccc2nc(CC3CCN(c4ccc(Cl)nn4)CC3)sc2c1", "note": "[Compound 2, ethyl 2-[[1-(6-chloro-3-pyridazinyl)-4-piperidinyl]methyl]-6-benzothiazolecarboxylate]", "values": [{"measurement": "IC50", "setting": "[1]", "value": 0.031, "unit": "µg/mL"}, {"measurement": "IC50", "setting": "[2]", "value": 0.067, "unit": "µg/mL"}]}, {"compound": "CCOC(=O)c1ccc2oc(CCC3CCN(c4ccc(Cl)nn4)CC3)nc2c1", "note": "[Compound 4, ethyl 2-[2-[1-(6-chloro-3-pyridazinyl)-4-piperidinyl]ethyl]-5-benzoxazolecarboxylate]", "values": [{"measurement": "IC50", "setting": "[1]", "value": 0.088, "unit": "µg/mL"}, {"measurement": "IC50", "setting": "[2]", "value": 0.039, "unit": "µg/mL"}]}, {"compound": "CCOC(=O)c1ccc(OCCC2CCN(c3ccc(C)nn3)CC2)s1", "note": "[Compound 7, ethyl 5-[2-[1-(6-methyl-3-pyridazinyl)-4-piperidinyl]ethoxy]-2-thiophenecarboxylate]", "values": [{"measurement": "IC50", "setting": "[1]", "value": 0.007, "unit": "µg/mL"}, {"measurement": "IC50", "setting": "[2]", "value": 0.185, "unit": "µg/mL"}]}]}
